Assay results from ChEMBL document CHEMBL4680243, “N-benzyl 4,4-disubstituted piperidines as a potent class of influenza H1N1 virus inhibitors showing a novel mechanism of hemagglutinin fusion peptide interaction” (Eur J Med Chem, 2020).
Active and inactive are the calls of the source. The calls are words filed in the database; no cut-off is given here.

Experiments:
[1] = test system: Influenza A virus; test: Antiviral activity against Influenza A virus (A/PR 8/34 (H1N1)) infected in MDCK cells assessed as reduction in viral RNA synthesis at 20 uM treated at 1 hr post-infection by RT-qPCR analysis; assay type: functional, organism-based; settings: A/Puerto Rico/8/1934(H1N1)
[2] = test system: Influenza A virus; test: Antiviral activity against Influenza A virus (A/PR 8/34 (H1N1)) infected in MDCK cells assessed as reduction in viral RNA synthesis at 2 uM treated at 5 hrs post-infection by RT-qPCR analysis; assay type: functional, organism-based; settings: A/Puerto Rico/8/1934(H1N1)
[3] = test system: Influenza A virus; test: Antiviral activity against Influenza A virus (A/PR 8/34 (H1N1)) infected in MDCK cells assessed as reduction in virus-induced cytopathic effect measured after 72 hrs by MTS assay; assay type: functional, organism-based; settings: A/Puerto Rico/8/1934(H1N1)
[4] = test system: Influenza A virus; test: Antiviral activity against Influenza A virus (A/PR 8/34 (H1N1)) clone 2 infected in MDCK cells assessed as reduction in virus-induced cytopathic effect measured after 72 hrs by microscopic analysis; assay type: functional, organism-based; settings: A/Puerto Rico/8/1934(H1N1)
[5] = test system: Influenza A virus; test: Antiviral activity against Influenza A virus (A/PR 8/34 (H1N1)) clone 1 infected in MDCK cells assessed as reduction in virus-induced cytopathic effect measured after 72 hrs by MTS assay; assay type: functional, organism-based; settings: A/Puerto Rico/8/1934(H1N1)
[6] = molecular target: T1, Cathepsin F (Homo sapiens) (UniProt Q9UBX1); test: Inhibition of recombinant human cathepsin F expressed in baculovirus infected insect cells using Z-Phe-Arg-AMC as substrate preincubated for 15 mins followed by substrate addition and measured for 60 mins by fluorescence assay; settings: time 75.0 min
T1 sequence (whole entry): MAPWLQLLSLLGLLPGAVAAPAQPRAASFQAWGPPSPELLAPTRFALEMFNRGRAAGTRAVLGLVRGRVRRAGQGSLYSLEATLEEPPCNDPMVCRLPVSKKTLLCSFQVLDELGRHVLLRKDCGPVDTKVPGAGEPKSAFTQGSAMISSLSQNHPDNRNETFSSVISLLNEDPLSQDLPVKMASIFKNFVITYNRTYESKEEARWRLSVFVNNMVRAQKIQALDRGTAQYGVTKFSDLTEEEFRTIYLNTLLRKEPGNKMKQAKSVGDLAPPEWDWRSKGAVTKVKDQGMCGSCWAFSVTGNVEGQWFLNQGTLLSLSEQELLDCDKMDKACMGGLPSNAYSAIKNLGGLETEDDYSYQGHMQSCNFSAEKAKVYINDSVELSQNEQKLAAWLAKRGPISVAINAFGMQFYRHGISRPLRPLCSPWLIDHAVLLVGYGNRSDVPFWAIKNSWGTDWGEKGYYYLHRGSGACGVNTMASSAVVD

[7] = test system: Influenza B virus; test: Antiviral activity against Influenza B virus B/HK/5/72 infected in MDCK cells assessed as reduction in virus induced cytopathic effect after 72 hrs by microscopy based method; assay type: functional, organism-based
[8] = test system: Influenza A virus H3N2; test: Antiviral activity against Influenza A virus H3N2 A/HK/7/87 infected in MDCK cells assessed as reduction in virus induced cytopathic effect after 72 hrs by MTS assay; assay type: functional, organism-based
[9] = test system: Influenza A virus; test: Antiviral activity against Influenza A virus (A/PR 8/34 (H1N1)) infected in MDCK cells assessed as reduction in virus-induced cytopathic effect measured after 72 hrs by microscopic analysis; assay type: functional, organism-based; settings: A/Puerto Rico/8/1934(H1N1)
[10] = molecular target: Procathepsin L (Homo sapiens) (UniProt P07711); test: Inhibition of human liver cathepsin L using Z-Phe-Arg-AMC as substrate preincubated for 15 mins followed by substrate addition and measured for 60 mins by fluorescence assay; settings: time 75.0 min
Procathepsin L (Homo sapiens), sequence (P07711 114-333 limits assumed): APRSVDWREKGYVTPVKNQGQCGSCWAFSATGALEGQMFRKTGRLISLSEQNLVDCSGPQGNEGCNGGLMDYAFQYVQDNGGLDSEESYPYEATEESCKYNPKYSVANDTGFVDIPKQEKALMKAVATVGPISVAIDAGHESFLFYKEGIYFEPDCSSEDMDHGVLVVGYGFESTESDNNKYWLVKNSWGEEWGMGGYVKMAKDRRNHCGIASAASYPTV

[11] = Cytotoxicity against MDCK cells assessed as reduction in cell viability measured after 72 hrs by MTS assay; assay type: cell-based, Canis lupus familiaris; settings: dog
[12] = test system: Influenza A virus; test: Antiviral activity against Influenza A virus (A/PR 8/34 (H1N1)) infected in human Calu-3 cells assessed as reduction in virus-induced cytopathic effect measured after 72 hrs by microscopic analysis; assay type: functional, organism-based; settings: A/Puerto Rico/8/1934(H1N1), Calu-3, 72 h
[13] = test system: Influenza A virus; test: Antiviral activity against Influenza A virus (A/PR 8/34 (H1N1)) clone 1 infected in MDCK cells assessed as reduction in virus-induced cytopathic effect measured after 72 hrs by microscopic analysis; assay type: functional, organism-based; settings: A/Puerto Rico/8/1934(H1N1)
[14] = test system: Influenza A virus (H1N1); test: Antiviral activity against Influenza A virus (H1N1) A/Virginia/ATCC3/2009 infected in MDCK cells assessed as reduction in virus-induced cytopathic effect measured after 72 hrs by microscopic analysis; assay type: functional, organism-based
[15] = test system: Influenza A virus H3N2; test: Antiviral activity against Influenza A virus H3N2 A/HK/7/87 infected in MDCK cells assessed as reduction in virus induced cytopathic effect after 72 hrs by microscopy based method; assay type: functional, organism-based
[16] = test system: Influenza A virus; test: Antiviral activity against Influenza A virus (A/PR 8/34 (H1N1)) infected in MDCK cells assessed as reduction in viral RNA synthesis at 50 uM treated at 1 hr post-infection by RT-qPCR analysis; assay type: functional, organism-based; settings: A/Puerto Rico/8/1934(H1N1)
[17] = test system: Influenza A virus; test: Antiviral activity against Influenza A virus (A/PR 8/34 (H1N1)) infected in human Calu-3 cells assessed as reduction in virus-induced cytopathic effect measured after 72 hrs by MTS assay; assay type: functional, organism-based; settings: A/Puerto Rico/8/1934(H1N1), Calu-3, 72 h
[18] = molecular target: T2, Transmembrane protease serine 11D (Homo sapiens) (UniProt O60235); test: Inhibition of recombinant human N-terminal His-tagged HAT (Ala42 to Ile418 residues) expressed in mouse NSO cells using Boc-Gln-Ala-Arg-AMC as substrate preincubated for 15 mins followed by substrate addition and measured for 60 mins by fluorescence assay; settings: time 75.0 min
T2 sequence (whole entry): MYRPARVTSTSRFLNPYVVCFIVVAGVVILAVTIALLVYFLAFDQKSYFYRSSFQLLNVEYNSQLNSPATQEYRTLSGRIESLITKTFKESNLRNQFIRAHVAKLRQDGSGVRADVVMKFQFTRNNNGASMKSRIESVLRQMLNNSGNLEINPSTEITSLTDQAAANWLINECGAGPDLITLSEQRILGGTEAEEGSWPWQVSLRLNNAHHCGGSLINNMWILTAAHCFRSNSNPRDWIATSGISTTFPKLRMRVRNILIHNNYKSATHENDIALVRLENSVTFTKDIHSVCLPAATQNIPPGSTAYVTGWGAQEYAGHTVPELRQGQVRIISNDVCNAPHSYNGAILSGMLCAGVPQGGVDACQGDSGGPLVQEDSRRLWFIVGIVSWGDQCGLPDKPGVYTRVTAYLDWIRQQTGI

[19] = Selectivity index, ratio of CC50 for MDCK cells to EC50 for antiviral activity against Influenza A virus (A/Puerto Rico/8/1934(H1N1)) infected in MDCK cells; assay type: toxicity, cell-based; settings: dog, read-out: Ratio CC50/EC50
[20] = Selectivity index, ratio of MCC for human HeLa cells to EC50 for antiviral activity against Influenza A virus (A/PR 8/34 (H1N1)) infected in human Calu-3 cells; assay type: toxicity, cell-based; settings: HeLa cells (MCC) and Calu-3 cells (EC50), read-out: Selectivity Index
[21] = Cytotoxicity against MDCK cells assessed as change in cell morphology measured after 72 hrs by microscopic analysis; assay type: cell-based, Canis lupus familiaris; settings: dog
[22] = molecular target: Hemagglutinin (Influenza A virus (A/Puerto Rico/8/1934(H1N1))) (UniProt P03452); test: Inhibition of Influenza A virus (A/PR 8/34 (H1N1)) hemagglutinin infected in MDCK cells assessed as reduction in virus binding to cell surface; assay type: cell-based
Hemagglutinin (Influenza A virus (A/Puerto Rico/8/1934(H1N1))), sequence (P03452 whole entry): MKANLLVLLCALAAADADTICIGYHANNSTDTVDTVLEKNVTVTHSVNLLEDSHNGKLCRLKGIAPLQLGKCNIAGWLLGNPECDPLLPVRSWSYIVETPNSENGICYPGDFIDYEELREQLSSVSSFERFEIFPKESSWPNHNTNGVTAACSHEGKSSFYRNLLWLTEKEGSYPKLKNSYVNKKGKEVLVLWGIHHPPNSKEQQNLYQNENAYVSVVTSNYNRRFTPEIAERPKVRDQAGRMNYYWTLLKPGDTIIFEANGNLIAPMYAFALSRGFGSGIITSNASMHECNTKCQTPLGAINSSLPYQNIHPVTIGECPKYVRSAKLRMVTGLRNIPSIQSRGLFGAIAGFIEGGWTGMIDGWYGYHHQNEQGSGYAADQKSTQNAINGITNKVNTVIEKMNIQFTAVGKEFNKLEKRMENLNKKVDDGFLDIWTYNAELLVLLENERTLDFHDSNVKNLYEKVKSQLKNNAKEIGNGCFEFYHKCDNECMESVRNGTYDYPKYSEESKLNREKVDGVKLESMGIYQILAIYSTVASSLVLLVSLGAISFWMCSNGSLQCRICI

[23] = test system: Influenza A virus (H1N1); test: Antiviral activity against Influenza A virus (H1N1) A/Virginia/ATCC3/2009 infected in MDCK cells assessed as reduction in virus-induced cytopathic effect measured after 72 hrs by MTS assay; assay type: functional, organism-based
[24] = molecular target: Cathepsin B (Homo sapiens) (UniProt P07858); test: Inhibition of human liver cathepsin B using Z-Phe-Arg-AMC as substrate preincubated for 15 mins followed by substrate addition and measured for 60 mins by fluorescence assay; settings: time 75.0 min
[25] = Selectivity index, ratio of MCC for HELF cells to EC50 for antiviral activity against Influenza A virus (A/PR 8/34 (H1N1)) infected in human Calu-3 cells; assay type: toxicity, cell-based; settings: HELF cells (MCC) and Calu-3 cells (EC50), read-out: Selectivity Index
[26] = Cytotoxicity against human HeLa cells; assay type: cell-based
[27] = molecular target: Hemagglutinin (Influenza A virus (A/Puerto Rico/8/1934(H1N1))) (UniProt P03452); test: Inhibition of Influenza A virus (A/PR 8/34 (H1N1)) hemagglutinin transfected in human HeLa cells assessed as reduction in low pH-indued polykaryon formation preincubated for 15 mins followed by pH 5.2 buffer addition and measured after 5 mins by giemsa staining based microscopic analysis; assay type: cell-based; settings: time 20.0 min
[28] = molecular target: Hemagglutinin (Influenza A virus (A/Puerto Rico/8/1934(H1N1))) (UniProt P03452); test: Inhibition of Influenza A virus (A/PR 8/34 (H1N1)) hemagglutinin transfected in human HeLa cells assessed as reduction in low pH-indued polykaryon formation at 100 uM preincubated for 15 mins followed by pH 5.2 buffer addition and measured after 5 mins by giemsa staining based microscopic analysis; assay type: cell-based; settings: time 20.0 min
[29] = molecular target: Trypsin (Homo sapiens) (UniProt P07477+P07478+P35030); test: Inhibition of human trypsin using Boc-Gln-Ala-Arg-AMC as substrate preincubated for 15 mins followed by substrate addition and measured for 60 mins by fluorescence assay; assay type: protein assay; settings: time 75.0 min
[30] = test system: Influenza B virus; test: Antiviral activity against Influenza B virus B/HK/5/72 infected in MDCK cells assessed as reduction in virus induced cytopathic effect after 72 hrs by MTS assay; assay type: functional, organism-based
[31] = test system: Influenza A virus; test: Antiviral activity against Influenza A virus (A/PR 8/34 (H1N1)) clone 2 infected in MDCK cells assessed as reduction in virus-induced cytopathic effect measured after 72 hrs by MTS assay; assay type: functional, organism-based; settings: A/Puerto Rico/8/1934(H1N1)
[32] = Cytotoxicity against HELF cells; assay type: cell-based; settings: human

SMILES | EC50 [3] | EC50 [5] | inhibition [6] | EC50 [9] | inhibition [10] | CC50 at 72 h [11] | EC50 [13] | inhibition [18] | MCC at 72 h [21] | inhibition [24] | inhibition [29] | also measured
CCN(CC)CCCC(C)Nc1ccnc2cc(Cl)ccc12 (configuration not stated) |  |  |  |  |  |  |  |  |  |  |  | Activity [1]: Active
Cc1onc(-c2ccccc2)c1C(=O)N1CCN(c2ccc([N+](=O)[O-])cc2Cl)CC1 |  |  |  |  |  |  |  |  |  |  |  | Activity [2]: Active
COC(=O)C[C@H](NC(=O)OC(C)(C)C)C(=O)N(Cc1ccc(F)cc1)C1(C(=O)NCc2ccccc2)CCN(Cc2ccccc2)CC1 | 2.7 µM | > 100 µM | inactive | 1.9 µM | inactive | > 100 µM | > 100 µM | inactive | > 100 µM | inactive | inactive | EC50 [4]: > 100 µM; Activity [7]: inactive; Activity [8]: inactive; EC50 [12]: 1.8 µM; Activity [14]: inactive; Activity [15]: inactive; Activity [16]: Active; EC50 [17]: 3 µM; selectivity ratio [19]: 18; selectivity ratio [20]: ≥ 30; inhibition [22]: inactive; Activity [23]: inactive; selectivity ratio [25]: ≥ 30; MCC [26]: 100 µM; inhibition [27]: Dose-dependent effect; inhibition [28]: 100%; Activity [30]: inactive; EC50 [31]: > 100 µM; MCC [32]: 100 µM
CC(C)(C)OC(=O)N[C@@H](CC(=O)O)C(=O)N(Cc1ccc(F)cc1)C1(C(=O)NCc2ccccc2)CCNCC1 | > 100 µM |  | inactive | > 100 µM | inactive | 49 µM |  | inactive | 79 µM | inactive | inactive | 
NC(=O)c1ncn([C@@H]2O[C@H](CO)[C@@H](O)[C@H]2O)n1 [RIBAVIRIN] | 31 µM | 20 µM |  | 22 µM |  | 58 µM | 11 µM |  | 100 µM |  |  | 
